Substitutions are numbered along the chain they refer to. Read-outs that look alike come from different tables or passages of the source.
Columns and labels:
[1] = tested on: AB9 cells; assay: Spindle phenotype of D. rerio cells treated with monastrol; format: cell-based; conditions: data not shown
From the text: (§1) Monastrol binds a hydrophobic pocket between loop 5 and α3 that is poorly conserved among kinesins, resulting in specificity for vertebrate Eg5 homologs. […] Monastrol is known to inhibit human and Xenopus Eg5 [7, 9], but not BimC [27]. To test its effect on D. rerio Eg5 and Klp-61F, we treated AB9 and KC167 cells with monastrol. […] To obtain unambiguous evidence, we cloned the motor domain of Klp-61F and subjected the recombinant protein to ATPase assays in the presence or absence of microtubules.
(§2) Conditions for growing the following cell lines are as described: D. rerio AB9 (37), D. melanogaster KC167 [38], and BS-C-1 green monkey kidney cells. For immunofluorescence microscopy, cells were grown on 12 mm circular coverslips to 30 % confluence, treated medium supplemented with drug and 0.2% DMSO, or a DMSO alone, for 6 hours, fixed with formaldehyde, and stained for DNA and microtubules, as described. D. melanogaster KC167 cells were cultured in Schneider's Drosophila Medium (GIBCO) whereas D. rerio AB9 cells and BS-C-1 green monkey kidney cells were cultured at 37°C in Dulbecco's Minimal medium in the presence of 10 % heat inactivated fetal calf serum.

[2] = tested on: BS-C-1 cells; assay: Monoaster formation in tissue culture cells (manual count of mitotic cells); format: cell-based, green monkey; conditions: Chlorocebus sabaeus, BSC-1, 6 h, read-out: Cells: monoaster formation score (drug concentration with roughly equal monastral and bipolar spindles)
Description: (§3) Figure 2 Structure-activity relationship of monastrol derivatives. (A) Scheme depicting the Biginelli condensation, a one-pot reaction for preparing monastrol derivatives. […] Each data point is the average of three independent experiments. […] Each cell-based assay was performed in duplicate.
as §2

[3] = target: T1, Klp61F-364H (Drosophila melanogaster, UniProt P46863); assay: ATP hydrolysis by Klp-61F motor domain (NADH-enzyme coupled assay); format: biochemical, D. melanogaster
T1 construct: His6 (C); made in house; host or cells: vector pRSETa
T1 sequence (P46863 1-364): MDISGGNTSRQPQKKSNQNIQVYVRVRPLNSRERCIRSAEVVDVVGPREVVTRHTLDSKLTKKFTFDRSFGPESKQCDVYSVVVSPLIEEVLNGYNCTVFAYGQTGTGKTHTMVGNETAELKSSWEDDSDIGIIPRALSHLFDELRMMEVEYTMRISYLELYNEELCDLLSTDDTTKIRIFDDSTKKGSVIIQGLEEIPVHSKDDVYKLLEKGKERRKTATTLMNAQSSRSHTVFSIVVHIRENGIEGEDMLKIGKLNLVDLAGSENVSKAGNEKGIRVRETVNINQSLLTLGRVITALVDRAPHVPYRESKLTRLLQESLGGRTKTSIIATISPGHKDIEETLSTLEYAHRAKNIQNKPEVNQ
Description: Each data point is the average of three independent experiments.
(§4) ATP hydrolysis by recombinantly expressed kinesin motor domains was measured using an NADH-enzyme coupled assay. ATP hydrolysis was measured in KC25 buffer supplemented with 5 μM taxol, 1 mM ATP-KOH (pH 7.0), the appropriate concentration of motor domain, and the appropriate concentrations of taxol-polymerized microtubules.

[4] = tested on: KC167 cells; assay: Spindle phenotype of Drosophila cells treated with monastrol; format: cell-based, D. melanogaster; conditions: data not shown
From the text: as §1, §2

[5] = target: T2, hEg5-367H (Homo sapiens, UniProt P52732); assay: ATP hydrolysis by recombinant human Eg5 motor domain (NADH-enzyme coupled assay); format: biochemical
T2 construct: motor domain (amino acid residues 1–367) of human Eg5; His6 (C); made in house
T2 sequence (P52732 1-367): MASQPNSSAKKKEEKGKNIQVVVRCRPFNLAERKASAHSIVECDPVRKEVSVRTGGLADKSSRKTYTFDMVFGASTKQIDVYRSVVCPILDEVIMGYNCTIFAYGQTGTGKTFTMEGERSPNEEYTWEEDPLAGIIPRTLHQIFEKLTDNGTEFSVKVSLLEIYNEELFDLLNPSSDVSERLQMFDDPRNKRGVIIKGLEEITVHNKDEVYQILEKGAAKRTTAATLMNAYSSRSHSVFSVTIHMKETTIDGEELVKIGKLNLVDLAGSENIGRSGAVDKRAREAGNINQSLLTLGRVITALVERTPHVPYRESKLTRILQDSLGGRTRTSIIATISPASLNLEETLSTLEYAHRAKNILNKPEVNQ
Description: as §3
We used a modified PCR mutagenesis protocol to introduce mutations into hEg5-367H, a plasmid encoding the C-terminally His6-tagged motor domain (amino acid residues 1–367) of human Eg5. The wild-type and mutant proteins were expressed and purified using Ni-NTA affinity chromatography and concentrated to between 3 and 10 mg/ml protein as described.
as §4

[6] = target: T3, hEg5-367H (Y211M) (Homo sapiens, UniProt P52732, Y211M); assay: ATP hydrolysis by Eg5 motor domain mutant Y211M; format: biochemical; conditions: Figure 4B; legend: basal ATP hydrolysis; read-out: IC50(μM) of monastrol, (Y211M)
T3 sequence (P52732 1-367 Y211M): T2 sequence (P52732 1-367) with Y211M
From the text: Figure 4 Mutagenesis of the monastrol binding site in human Eg5. (A) Design of mutations in the human Eg5 motor domain. Amino acid side chains that are not conserved between Eg5 and conventional kinesin were targeted, either introducing chimeric or rationally designed mutations (asterix for targeted point mutants) to test the contribution of residues to the drug-sensitivity of Eg5. (B) Steady-state enzymatic parameters for engineered human Eg5 motor domain mutants. Steady-state ATP hydrolysis by Eg5 was measured using an NADH-enzyme coupled assay varying the concentration of ATP, microtubules, or monastrol to obtain the microtubule concentration for half-maximal stimulation (K0.5MT), the maximal rate of microtubule-stimulated ATP hydrolysis (kcat), and the concentration of monastrol that inhibits basal ATP hydrolysis by 50 % (IC50), as described.
We used a modified PCR mutagenesis protocol to introduce mutations into hEg5-367H, a plasmid encoding the C-terminally His6-tagged motor domain (amino acid residues 1–367) of human Eg5. […]
as §4

In the case of `CCOC(=O)C1=C(C)NC(=S)NC1c1cccc(O)c1` (stereo not shown) [Monastrol], the “Effect on mitosis in D. rerio cells” value [1] is reported as “mitotic arrest”, the EC50 [2] is reported as less than 50 µM and the “Inhibition of microtubule-stimulated ATP hydrolysis by Klp-61F motor domain, in words” value [3] is reported as “weakly inhibited”. For the same molecule, the “Effect on spindles in Drosophila cells” value [4] was “normal, bipolar spindles”, the IC50 ([5]; 500 nM hEg5-367H, KC25 buffer, 1 mM ATP-KOH (pH 7.0), 1 μM taxol-stabilized microtubules, read-out: IC50 (μM), inhibition of ATP hydrolysis by Eg5 motor domain) was 5.2 ± 0.4 µM and the IC50 ([5]; wild-type motor domain, Figure 4B, legend: basal ATP hydrolysis, read-out: IC50(μM) of monastrol, hEg5-367H) was 10 ± 2 µM. For the same molecule, the IC50 [6] was 0.8 ± 0.3 µM.
